According to PubChem BioAssay AID179 (DTP/NCI, 2004):
pEC50, pIC50: −log10 of the molar value. Active and inactive are the calls of the source.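 Rule for the calls: active = compounds giving half or more protection of infected cells from virus-caused growth loss, again on retest; inactive = the rest.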

Test system: CEM cells HIV-1 protection, formazan growth assay
Assay: NCI AIDS Antiviral Assay
Settings: for pIC50: measured here: growth of uninfected CEM cells
Method: The ability of compounds to protect human CEM cells from HIV-1 infection is measured as a screen for new compounds capable of inhibiting the HIV virus. Five concentrations of drug were tested on uninfected and infected cells and cell growth was measured using a soluble formazan assay. […] Compounds that provided at least 50% protection were retested. Compounds that provided at least 50% protection on retest were listed as moderately active. Compounds that reproducibly provided 100% protection were listed as confirmed active. […] Note that the inability to provide protection could be due to toxicity.

`CN=C(Nc1cccc(C(F)(F)F)c1)SCc1ccc(N=C=S)cc1` was tested, and the outcome was “inactive”.
`COC(=O)c1ccc(C)cc1CC1Cc2cccc(C)c2C1=O` (centres undefined) was tested, and the pEC50 was under 3.70 and the pIC50 was 5.27.
`CC(C)CN(CC(C)C)C(=O)C(Br)C(Br)C(=O)O` (centres undefined) showed a pEC50 of under 3.70 and a pIC50 of 4.04.
`N#CC1=C(N)OC(c2cccc([N+](=O)[O-])c2)C1(C#N)C#N` (centres undefined) gave a pEC50 of under 3.70 and a pIC50 of 4.81.
For `O=c1[nH]c(Nc2ccc(Br)c(C(F)(F)F)c2)nc2nc[nH]c12`, the pEC50 was under 3.82 and the pIC50 was 4.55.
`CCOC(=O)C1(C(C)C)OC2CCCCCN2C1=O` (centres undefined) showed a pEC50 of under 3.23 and a pIC50 of under 3.23.
`CCCCN1C(=O)[C@@H]2[C@H](c3ccccc3O)C(c3ccccc3O)[C@@H]2C1=O` (some centres undefined) was tested, and the pEC50 was under 3.86 and the pIC50 was 4.52.
`Cc1c(N=Nc2cc(N=Nc3ccc(N=Nc4ccc(O)c(C(=O)O)c4)cc3)c(N)cc2N)cccc1S(=O)(=O)O` was tested, and the pEC50 was 4.59 and the pIC50 was under 4.00.
In the case of `O=C(O)C(=O)O.[NH-]C1CCCC1[NH-].[Pt+2]` (centres undefined), the pEC50 was under 3.70 and the pIC50 was 5.02.
For `O=c1nc(N2CCCC2)nc(N2CCCC2)s1`, the outcome was “inactive”.
Work on `O=S(=O)(OI(OI(OS(=O)(=O)C(F)(F)F)c1ccccc1)c1ccccc1)C(F)(F)F` yielded a pEC50 of under 3.46 and a pIC50 of 5.16.
`NCCNC(=O)CCC(CN(CC(=O)O)CC(=O)O)N(CC(=O)O)CC(=O)O` (centres undefined) gave a pEC50 of under 4.20 and a pIC50 of under 4.20.
Work on `CC1(C)CNC(=S)S1` yielded a pEC50 of under 3.47 and a pIC50 of under 3.47.
`Cn1c(=O)c2c(nc3n2CCCC(=O)N3CCCCl)n(C)c1=O` gave a pEC50 of under 4.00 and a pIC50 of under 4.00.
Work on `Cc1ccc(N2C(=O)/C(=C\c3ccc(N(CCC#N)CCC#N)cc3)N=C2COc2ccccc2)cc1` yielded a pEC50 of under 4.42 and a pIC50 of under 4.42.
`Cc1cc(O)c2c(=O)c3ccccc3[nH]c2c1` gave a pEC50 of under 3.70 and a pIC50 of 4.39.
`COc1ccc2c(c1)CCCN1CCc3ccccc3C21` (centres undefined) showed a pEC50 of under 3.70 and a pIC50 of 3.96.
Work on `Cn1cnc([N+](=O)[O-])c1Sc1nc2ccccc2s1` yielded a pEC50 of under 4.61 and a pIC50 of 5.49.
In the case of `CCc1oc2ccc(OC)c3c2c1C=CC=C3`, the outcome was “inactive”.
`O=C1CC2(C(=O)N1CN1CCOCC1)c1ccccc1-c1ccccc12` gave a pEC50 of under 3.99 and a pIC50 of 4.86.
`CCc1n[nH]c(=S)n1/N=C/c1ccc(-c2ccc([N+](=O)[O-])cc2)o1` was tested, and the pEC50 was under 4.96 and the pIC50 was under 4.96.
Compound `O=c1sc(-c2nc3ccccc3[nH]2)c(/N=C/c2ccccc2)n1-c1ccccc1` has a pEC50 of under 5.58 and a pIC50 of under 5.58.
`Cc1ccc(/C=C/C(=N/NC(=O)N/N=C(/C=C/c2ccc(C)cc2)C(C)(C)CN2CCCCC2)C(C)(C)CN2CCCCC2)cc1` showed a pEC50 of under 3.70 and a pIC50 of 5.52.
Work on `Nc1nnc(N)n1-n1c(N)nnc1N` yielded a pEC50 of under 3.70 and a pIC50 of 3.78.
Work on `Cc1cc(C)nc(NC(=O)Nc2cccc(C(F)(F)F)c2)c1` yielded a pEC50 of under 3.70 and a pIC50 of under 3.70.
`CC(C)=CCC(O)[C@](C)(O)[C@H]1[C@H](O)C[C@@]2(C)[C@@H]3CCc4cc(O)c(OC5OC(CO)C(O)C(O)C5O)cc4C3(C)C(=O)C[C@]12C` (some centres undefined) gave a pEC50 of under 3.70 and a pIC50 of under 3.70.
`CCNc1nnc(-c2nsc3ccccc23)s1` was tested, and the pEC50 was under 4.70 and the pIC50 was under 4.70.
`CC(=O)Nc1cc(N=Nc2ccc(N=Nc3ccc(NC(=O)c4ccc(N)cc4)cc3C)cc2C)c(S(=O)(=O)O)cc1N=Nc1ccc(C(=O)O)cc1` gave a pEC50 of under 3.91 and a pIC50 of 3.94.
With `CCOC(=O)c1sc2[n+](c1C)C(=O)/C(=C/c1cc(OC)c(OC)c(OC)c1)S2` the pEC50 was under 3.70 and the pIC50 was 4.89.
`CN(C)CCN=C1Nc2ccccc2C(=S)N2CSCC12` (centres undefined) was tested, and the pEC50 was under 3.70 and the pIC50 was under 3.70.
`Cc1ccc(-n2cnc(C(=N)C#N)c2N)cc1` showed a pEC50 of under 3.70 and a pIC50 of 3.91.
Work on `Cc1c(CCOC=O)c(=O)[nH]c2nncn12` yielded a pEC50 of 4.85 and a pIC50 of under 3.70.
`COC(=O)[C@@H](N1C(=O)c2ccccc2C1=O)C1(C)CC(Cl)=NO1` (some centres undefined) showed a pEC50 of under 3.70 and a pIC50 of under 3.70.
Work on `NC(=O)N/N=C(\C(=O)C(=O)Nc1ccc(Cl)c(C(F)(F)F)c1)c1nc2ccc(C(=O)c3ccccc3)cc2[nH]c1=O` yielded a pEC50 of under 4.21 and a pIC50 of under 4.21.
`COc1ccccc1C1=Nc2ccccc2N=C(c2ccccc2O)C1` showed a pEC50 of under 3.70 and a pIC50 of 4.03.
Compound `O=C1c2ccccc2C(=O)N1C/C(Cl)=C/Cl` has a pEC50 of under 3.70 and a pIC50 of under 3.70.
With `CCOC(=O)/C(O)=C(/C=NC(=S)c1ccncc1)C(=O)OCC` the pEC50 was under 3.70 and the pIC50 was under 3.70.
`O=C(Cn1ccnc1[N+](=O)[O-])NCc1ccccc1` was tested, and the outcome was “inactive”.
In the case of `COC(=O)c1cc(C(=O)OC)c2c3[nH]cnc3ncn2c1=O`, the pEC50 was under 3.70 and the pIC50 was under 3.70.
For `Cc1cc2c(ccc3c(C)cc(=O)oc32)o1`, the outcome was “inactive”.
For `COC(=O)C(Cc1cccc(OC)c1)NC(=O)OC(C)(C)C` (centres undefined), the outcome was “inactive”.
`Cc1nc(NC(C)(CO)CO)nc2c1C(=O)Nc1ccccc1N2` showed a pEC50 of under 3.70 and a pIC50 of under 3.70.
`C=CCCCCCCCCC/C=C1\C[C@H](O)COC1=O` was tested, and the pEC50 was under 4.03 and the pIC50 was under 4.03.
For `O=C1c2cc3c(cc2CC1Cc1ccc2c(c1)CCC2)CCC3` (centres undefined), the pEC50 was under 3.70 and the pIC50 was 4.04.
For `COC(=O)C1=C(O)C(C(=O)OC)C2(C3CC=CC3)C(C(=O)OC)=C(O)C(C(=O)OC)C12` (centres undefined), the pEC50 was under 3.67 and the pIC50 was under 3.67.
